# Data as given in patent publication US20240374561A1, “METHOD FOR PREVENTING NITRATION OF TYROSINE RESIDUES IN HEPATOCYTE GROWTH FACTOR USING TRISULFIDE COMPOUND” (KYUSHU UNIVERSITY, NATIONAL UNIVERSITY CORPORATION, priority 2021, published 2024).
# Columns and labels:
# [1] = Solubility in water at 20° C.; type: physicochemical; settings: free lipoic acid trisulfide
# recombinant mouse HGF = molecular target: T1, recombinant mouse HGF (Mus musculus, UniProt Q08048); assay: Inhibition of nitration of recombinant HGF protein by peroxynitrite (ONOO-), Western blot with anti-nitrotyrosine antibody; type: biochemical; settings: for inhibit nitration of tyrosine residues in HGF: summary statement
# T1 construct: purchased R&D Systems 2207-HG-025/CF
# T1 sequence (Q08048 33-728): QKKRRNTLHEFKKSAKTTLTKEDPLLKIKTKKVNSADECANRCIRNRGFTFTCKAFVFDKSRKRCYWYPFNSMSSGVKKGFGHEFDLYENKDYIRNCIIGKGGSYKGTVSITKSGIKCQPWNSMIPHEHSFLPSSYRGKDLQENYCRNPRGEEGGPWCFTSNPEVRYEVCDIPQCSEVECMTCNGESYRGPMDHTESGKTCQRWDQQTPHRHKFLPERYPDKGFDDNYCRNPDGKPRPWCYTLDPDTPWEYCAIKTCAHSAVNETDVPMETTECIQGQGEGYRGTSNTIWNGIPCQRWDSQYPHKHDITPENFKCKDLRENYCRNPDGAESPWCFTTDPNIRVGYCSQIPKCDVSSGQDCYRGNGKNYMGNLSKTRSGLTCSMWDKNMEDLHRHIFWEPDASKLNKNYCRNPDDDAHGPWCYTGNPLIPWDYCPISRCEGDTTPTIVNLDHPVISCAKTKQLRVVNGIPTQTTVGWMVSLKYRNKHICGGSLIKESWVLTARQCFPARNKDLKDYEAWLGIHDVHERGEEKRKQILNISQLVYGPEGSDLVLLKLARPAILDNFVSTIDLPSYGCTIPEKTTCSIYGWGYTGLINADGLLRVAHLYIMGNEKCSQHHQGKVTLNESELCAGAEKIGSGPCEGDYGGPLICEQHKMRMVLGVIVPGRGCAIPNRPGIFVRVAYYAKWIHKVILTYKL
# Protocol: GSSSG dihydrate produced by the method described in Patent Literature 1 was added to and mixed with a purified preparation of recombinant mouse HGF (2207-HG-025/CF, manufactured by R&D Systems, carrier free) dissolved in PBS such that the molar ratio of HGF:GSSSG was 1:10, 1:50, or 1:400 to prepare samples. A sample was also prepared in which GSSSG dihydrate was not added and the molar ratio of HGF:GSSSG was 1:0. Peroxynitrite (ONOO^−) was immediately added to each sample such that the molar ratio of HGF:ONOO^− was 1:500. The samples were held at pH 7.2 to 7.4 and 25 to 37° C. for 30 minutes (nitrating treatment) to give nitrated samples.
# The obtained nitrated samples were subjected to Western blotting in accordance with a conventional method. The nitrated samples were treated with a solution containing SDS and β-mercaptoethanol to give samples for reduced SDS-PAGE. A 10% polyacrylamide gel was used for electrophoresis. The material of the transfer membrane used was nitrocellulose. HRP-labeled anti-nitrotyrosine monoclonal antibody (catalog number: sc-32757 HRP, manufactured by Santa Cruz Biotechnology) and HRP-labeled anti-HGF monoclonal antibody (catalog number: sc-374422 HRP, manufactured by Santa Cruz Biotechnology) were used. The immune response was recorded on an imaging device using ECL reagents. Nitrated bovine serum albumin (BSAnitro) was used as a positive control sample. PL (Protein Ladder) and MW-STD (Molecular Weight-Standard) in FIG. 1 are molecular weight markers. Further, material A in FIG. 1 means GSSSG.
# Nitration treatment and Western blotting were performed in the same manner as in Example 1 except that lipoic acid trisulfide was used instead of GSSSG and the molar ratio of HGF:ONOO was set to 1:4000. In FIG. 1, material B means lipoic acid trisulfide.
Lipoic acid trisulfide Solubility [1],inhibit nitration of tyrosine residues in HGF (recombinant mouse HGF),Compound,"reaction intensity with the anti-nitrotyrosine antibody (nitration of tyrosine residues in HGF) (recombinant mouse HGF; molar ratio HGF:GSSSG 1:0, 1:10, 1:50, 1:400, HGF:ONOO- 1:500, pH 7.2 to 7.4, 25 to 37° C., 30 minutes, FIG. 1)","reaction intensity with the anti-nitrotyrosine antibody (nitration of tyrosine residues in HGF) (recombinant mouse HGF; increasing molar ratio of lipoic acid trisulfide, HGF:ONOO 1:4000, otherwise as Example 1, FIG. 2)"
300 µg/mL,,"O=C(O)CCCC[C@@H]1CCSSS1 [Lipoic acid trisulfide R body, (R)-lipoic acid trisulfide]",,
,in a concentration-dependent manner,"N[C@@H](CCC(=O)N[C@@H](CSSSC[C@H](NC(=O)CC[C@H](N)C(=O)O)C(=O)NCC(=O)O)C(=O)NCC(=O)O)C(=O)O [GSSSG, glutathione trisulfide]",decreased with an increase in the molar ratio of GSSSG added,
,in a concentration-dependent manner,O=C(O)CCCCC1CCSSS1 (centres unmarked) [lipoic acid trisulfide],,decreased with an increase in the molar ratio of lipoic acid trisulfide added
